Earlier results on five compounds are cited in PubChem BioAssay AID1259409 (Chemical Carcinogenesis Research Information System (CCRIS), 2018).

Each structure is given as a SMILES string.

The test system of the data set is rodent chemically induced tumor inhibition, incidence and multiplicity. Put plainly: CCRIS tumor inhibitor studies.

With `CS(=O)(=O)c1ccc(C2=C(c3ccccc3)C(=O)OC2)cc1`, the “tumour outcome (control, treated, inhibition, significance)” value was 16/23 (69.6%), 10/24 (41.7%), 40%, not significant (Carcinogen: N-METHYL-N-NITROSOUREA, 684-93-5, Dose [Inhibitor]: 0.001% IN DIET, BEGINNING 7 D BEFORE FIRST CARCINOGEN DOSE FOR 19 WK (STUDY DURATION: 19 WK), Route [Inhibitor]: ORAL, Species: RAT, Strain/Sex: SPRAGUE-DAWLEY/FEMALE, Target Tissue: Type of Lesion: MAMMARY GLAND: TUMOR, Dose [Carcinogen]: 50 MG/KG 1 WK FOR 2 WK) and 16/23 (69.6%), 10/25 (40%), 42.5%, p< 0.05 (Carcinogen: N-METHYL-N-NITROSOUREA, 684-93-5, Dose [Inhibitor]: 0.005% IN DIET, BEGINNING 7 D BEFORE FIRST CARCINOGEN DOSE FOR 19 WK (STUDY DURATION: 19 WK), Route [Inhibitor]: ORAL, Species: RAT, Strain/Sex: SPRAGUE-DAWLEY/FEMALE, Target Tissue: Type of Lesion: MAMMARY GLAND: TUMOR, Dose [Carcinogen]: 50 MG/KG 1 WK FOR 2 WK).

For `CCN1CCCC1CNC(=O)c1cc(S(N)(=O)=O)ccc1OC` (centres undefined), the “tumour outcome (control, treated, inhibition, significance)” value is on record as 13/18 (72%), 11/18 (61%), 15%, not significant (Carcinogen: N-METHYL-N'-NITRO-N-NITROSOGUANIDINE, 70-25-7, Dose [Inhibitor]: 0, 30 MG/KG 1/2 D BEGINNING 1 WK POST CARCINOGEN TREATMENT AND CONTINUING FOR DURATION OF STUDY (STUDY DURATION: 52 WK), Route [Inhibitor]: SUBCUTANEOUS, Species: RAT, Strain/Sex: WISTAR/MALE, Target Tissue: Type of Lesion: STOMACH: ADENOCARCINOMA, Dose [Carcinogen]: 50 UG/ML IN DRINKING WATER FOR 25 WK, Promoter: NONE USED) and 13/18 (72%), 11/18 (61%), 15%, not significant (Carcinogen: N-METHYL-N'-NITRO-N-NITROSOGUANIDINE, 70-25-7, Dose [Inhibitor]: 0, 30 MG/KG IN 2 ML/KG 0.9% NACL 1/2 D FOR STUDY DURATION BEGINNING POST CARCINOGEN TREATMENT (STUDY DURATION: 52 WK), Route [Inhibitor]: SUBCUTANEOUS, Species: RAT, Strain/Sex: WISTAR/MALE, Target Tissue: Type of Lesion: GLANDULAR STOMACH: ADENOCARCINOMA, Dose [Carcinogen]: 50 UG/ML DRINKING WATER FOR 25 WK).

For `CCOC(=O)C(C)(C)Oc1ccc(Cl)cc1`, the “tumour outcome (control, treated, inhibition, significance)” value by setting is: (Carcinogen: N-NITROSOBIS(2-HYDROXYPROPYL)AMINE, 53609-64-6, Dose [Inhibitor]: 0.25% IN DIET FOLLOWING LAST CARCINOGEN DOSE FOR 30 WK (STUDY DURATION: 35 WK), Route [Inhibitor]: ORAL, Species: HAMSTER, Strain/Sex: SYRIAN/MALE, Target Tissue: Type of Lesion: KIDNEY: RENAL CELL CARCINOMA, Dose [Carcinogen]: 500 MG/KG BW 1/WK FOR 5 WK, Promoter: NONE USED) 1/17 (6%), 2/16 (13%), -117%, not calculated; (Carcinogen: N-NITROSOBIS(2-HYDROXYPROPYL)AMINE, 53609-64-6, Dose [Inhibitor]: 0.25% IN DIET FOLLOWING LAST CARCINOGEN DOSE FOR 30 WK (STUDY DURATION: 35 WK), Route [Inhibitor]: ORAL, Species: HAMSTER, Strain/Sex: SYRIAN/MALE, Target Tissue: Type of Lesion: LUNG: ADENOCARCINOMA, Dose [Carcinogen]: 500 MG/KG BW 1/WK FOR 5 WK, Promoter: NONE USED) 3/17 (18%), 0/16 (0%), 100%, not calculated; (Carcinogen: N-NITROSOBIS(2-HYDROXYPROPYL)AMINE, 53609-64-6, Dose [Inhibitor]: 0.25% IN DIET FOLLOWING LAST CARCINOGEN DOSE FOR 30 WK (STUDY DURATION: 35 WK), Route [Inhibitor]: ORAL, Species: HAMSTER, Strain/Sex: SYRIAN/MALE, Target Tissue: Type of Lesion: LUNG: ADENOMA, Dose [Carcinogen]: 500 MG/KG BW 1/WK FOR 5 WK, Promoter: NONE USED) 16/17 (94%), 10/16 (63%), 33%, not calculated; (Carcinogen: N-NITROSOBIS(2-HYDROXYPROPYL)AMINE, 53609-64-6, Dose [Inhibitor]: 0.25% IN DIET FOLLOWING LAST CARCINOGEN DOSE FOR 30 WK (STUDY DURATION: 35 WK), Route [Inhibitor]: ORAL, Species: HAMSTER, Strain/Sex: SYRIAN/MALE, Target Tissue: Type of Lesion: PANCREAS: ADENOCARCINOMA, Dose [Carcinogen]: 500 MG/KG BW 1/WK FOR 5 WK, Promoter: NONE USED) 8/17 (47%), 3/16 (19%), 60%, not calculated; (Carcinogen: N-NITROSOBIS(2-HYDROXYPROPYL)AMINE, 53609-64-6, Dose [Inhibitor]: 0.25% IN DIET FOLLOWING LAST CARCINOGEN DOSE FOR 30 WK (STUDY DURATION: 35 WK), Route [Inhibitor]: ORAL, Species: HAMSTER, Strain/Sex: SYRIAN/MALE, Target Tissue: Type of Lesion: PANCREAS: ADENOMA, Dose [Carcinogen]: 500 MG/KG BW 1/WK FOR 5 WK, Promoter: NONE USED) 5/17 (29%), 4/16 (25%), 14%, not calculated; (Carcinogen: N-NITROSOBIS(2-HYDROXYPROPYL)AMINE, 53609-64-6, Dose [Inhibitor]: 0.5% IN DIET FOLLOWING LAST CARCINOGEN DOSE FOR 30 WK (STUDY DURATION: 35 WK), Route [Inhibitor]: ORAL, Species: HAMSTER, Strain/Sex: SYRIAN/MALE, Target Tissue: Type of Lesion: KIDNEY: RENAL CELL CARCINOMA, Dose [Carcinogen]: 500 MG/KG BW 1/WK FOR 5 WK, Promoter: NONE USED) 1/17 (6%), 3/17 (18%), -200%, not calculated. Also, the “tumour outcome (control, treated, inhibition, significance)” value runs as follows: (Carcinogen: N-NITROSOBIS(2-HYDROXYPROPYL)AMINE, 53609-64-6, Dose [Inhibitor]: 0.5% IN DIET FOLLOWING LAST CARCINOGEN DOSE FOR 30 WK (STUDY DURATION: 35 WK), Route [Inhibitor]: ORAL, Species: HAMSTER, Strain/Sex: SYRIAN/MALE, Target Tissue: Type of Lesion: LUNG: ADENOCARCINOMA, Dose [Carcinogen]: 500 MG/KG BW 1/WK FOR 5 WK, Promoter: NONE USED) 3/17 (18%), 2/17 (12%), 33%, not calculated; (Carcinogen: N-NITROSOBIS(2-HYDROXYPROPYL)AMINE, 53609-64-6, Dose [Inhibitor]: 0.5% IN DIET FOLLOWING LAST CARCINOGEN DOSE FOR 30 WK (STUDY DURATION: 35 WK), Route [Inhibitor]: ORAL, Species: HAMSTER, Strain/Sex: SYRIAN/MALE, Target Tissue: Type of Lesion: LUNG: ADENOMA, Dose [Carcinogen]: 500 MG/KG BW 1/WK FOR 5 WK, Promoter: NONE USED) 16/17 (94%), 9/17 (53%), 44%, p<0.05; (Carcinogen: N-NITROSOBIS(2-HYDROXYPROPYL)AMINE, 53609-64-6, Dose [Inhibitor]: 0.5% IN DIET FOLLOWING LAST CARCINOGEN DOSE FOR 30 WK (STUDY DURATION: 35 WK), Route [Inhibitor]: ORAL, Species: HAMSTER, Strain/Sex: SYRIAN/MALE, Target Tissue: Type of Lesion: PANCREAS: ADENOCARCINOMA, Dose [Carcinogen]: 500 MG/KG BW 1/WK FOR 5 WK, Promoter: NONE USED) 8/17 (47%), 1/17 (6%), 87%, p<0.05; (Carcinogen: N-NITROSOBIS(2-HYDROXYPROPYL)AMINE, 53609-64-6, Dose [Inhibitor]: 0.5% IN DIET FOLLOWING LAST CARCINOGEN DOSE FOR 30 WK (STUDY DURATION: 35 WK), Route [Inhibitor]: ORAL, Species: HAMSTER, Strain/Sex: SYRIAN/MALE, Target Tissue: Type of Lesion: PANCREAS: ADENOMA, Dose [Carcinogen]: 500 MG/KG BW 1/WK FOR 5 WK, Promoter: NONE USED) 5/17 (29%), 2/17 (12%), 59%, not calculated.

With `C=CCc1cc(OC)c2c(c1)OCO2`, the “tumour outcome (control, treated, inhibition, significance)” value (Carcinogen: BENZO[A]PYRENE, 50-32-8, Dose [Inhibitor]: 0, 10 MG SUSPENDED IN 0.3 ML COTTONSEED OIL 3/WK FOR 4 WK ON DAYS OTHER THAN THE CARCINOGEN TREATMENT, 3 ADDITIONAL DOSE, Route [Inhibitor]: GAVAGE, Species: MOUSE, Strain/Sex: STRAIN-A/FEMALE, Target Tissue: Type of Lesion: FORESTOMACH: TUMOR, Dose [Carcinogen]: 1 MG IN 0.3 ML COTTONSEED OIL 2/WK FOR 4 WK, Promoter: NONE USED) is given as 12/17 (71%), 13/18 (72%), -1%, not significant and the “tumour outcome (control, treated, inhibition, significance)” value (Carcinogen: BENZO[A]PYRENE, 50-32-8, Dose [Inhibitor]: 0, 10 MG SUSPENDED IN 0.3 ML COTTONSEED OIL 3/WK FOR 4 WK ON DAYS OTHER THAN THE CARCINOGEN TREATMENT, 3 ADDITIONAL DOSE, Route [Inhibitor]: GAVAGE, Species: MOUSE, Strain/Sex: STRAIN-A/FEMALE, Target Tissue: Type of Lesion: LUNG: TUMOR, Dose [Carcinogen]: 1 MG IN 0.3 ML COTTONSEED OIL 2/WK FOR 4 WK, Promoter: NONE USED) is 17/17 (100%), 18/18 (100%), 0%, not significant.

As to `C[Se]C[C@H](N)C(=O)O`, the “tumour outcome (control, treated, inhibition, significance)” value is reported as 25/30 (83%), 15/30 (50%), 40%, p<0.05 (Carcinogen: 7,12-DIMETHYLBENZ[A]ANTHRACENE, 57-97-6, Dose [Inhibitor]: 0, 0.000025 MOL/KG DIET BEGINNING 1 WK POST CARCINOGEN AND CONTINUED FOR STUDY DURATION (STUDY DURATION: 25 WK), Route [Inhibitor]: ORAL, Species: RAT, Strain/Sex: CD-1/FEMALE, Target Tissue: Type of Lesion: MAMMARY GLAND: ADENOCARCINOMA, Dose [Carcinogen]: 10 MG ONCE, Promoter: NONE USED); 25/30 (83%), 17/30 (57%), 31%, p<0.05 (Carcinogen: 7,12-DIMETHYLBENZ[A]ANTHRACENE, 57-97-6, Dose [Inhibitor]: 0, 0.000025 MOL/KG DIET BEGINNING 2 WK PRIOR TO CARCINOGEN AND CONTINUED 1 WK POST CARCINOGEN (STUDY DURATION: 25 WK), Route [Inhibitor]: ORAL, Species: RAT, Strain/Sex: CD-1/FEMALE, Target Tissue: Type of Lesion: MAMMARY GLAND: ADENOCARCINOMA, Dose [Carcinogen]: 10 MG ONCE, Promoter: NONE USED); 22/25 (88%), 10/25 (40%), 55%, p<0.05 (Carcinogen: 7,12-DIMETHYLBENZ[A]ANTHRACENE, 57-97-6, Dose [Inhibitor]: 0, 0.000025 MOL/KG DIET BEGINNING 2 WK PRIOR TO CARCINOGEN AND CONTINUED FOR STUDY DURATION (STUDY DURATION: 25 WK), Route [Inhibitor]: ORAL, Species: RAT, Strain/Sex: CD-1/FEMALE, Target Tissue: Type of Lesion: MAMMARY GLAND: ADENOCARCINOMA, Dose [Carcinogen]: 10 MG ONCE, Promoter: NONE USED).
